Experiment [1] has as its system excitor amino-acid receptors of cortical membranes ("forebrain") of rats. In words: Inhibition of the specific binding of [3H]-glutamate to rat forebrain membranes. In short, it runs like this:
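Forebrain membranes (cortex plus hippocampus, striatum removed) in Tris-HCl pH 7.1 incubated with ³H-L-glutamate and test compound for 20 min at 37 °C. Filtration on glass-fibre filters, scintillation counting; specific binding = total minus binding with 3.6 mM cold L-glutamate.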

The nature of experiment [2]: Antidepressant activity in the behavioural despair test in the mouse. Type of experiment: in vivo, mouse (male CD1).
Experiment [3] in a line: Memory-enhancement activity in the passive avoidance test in the rat. The class given is in vivo, rat (male Wistar). Particulars: rat.

As usually defined, the IC50 is the concentration that inhibits the measured activity by half. Read a high IC50 as weaker potency in that assay. What is called ED50 is the midpoint of the dose-response relation.

`CC1(C)CCC(NC(=O)[C@@H](N)CCC(=O)O)CC1` [Compound 23, 1-(4,4-dimethylcyclohexyl)-L-isoglutamine[4-amino-5-(4',4'-dimethylcyclohexylamine)-5-oxopentanoic acid (S)]]: the “Activity in inhibiting the binding of glutamate (in words)” value in experiment [1] (rat cortical membranes) is “considerable activity in inhibiting the binding of the glutamate”. For the same compound, the IC50 in experiment [1] (rat forebrain membranes, 20 min, 37° C., pH 7.1) is 13.8 µM. In addition, the inhibition in vivo at 3 mg/kg in experiment [2] (5 min, 3 mg/kg IP, 5 minutes, read-out: Decrease in immobility (as %) vs the controls) is 14%. Also, in experiment [2] (5 min, 10 mg/kg IP, 5 minutes, read-out: Decrease in immobility (as %) vs the controls), the inhibition in vivo at 10 mg/kg was found to be 31%. Further, the inhibition in vivo at 30 mg/kg in experiment [2] (5 min, 30 mg/kg IP, 5 minutes, read-out: Decrease in immobility (as %) vs the controls) was found to be 94%. In experiment [2] (IP), the “Antidepressant activity (in words)” value is on record as “antidepressant effect of the same order of magnitude as the comparison drug used, amitriptyline”. Besides, the ED50 in experiment [2] (IP, read-out: ED50 (dose antagonising immobility time by 50%)) was 11.1 mg/kg. Besides, the change in vivo at 0.1 mg/kg in experiment [3] (96 h, 0.1 mg/kg IP, retest on the 4th day, 6 treatments, read-out: % variation vs controls (FS) in step through latency) is 11%. Further, the change in vivo at 1 mg/kg in experiment [3] (96 h, 1 mg/kg IP, retest on the 4th day, 6 treatments, read-out: % variation vs controls (FS) in step through latency) was found to be 19%. Also, the change in vivo at 10 mg/kg in experiment [3] (96 h, 10 mg/kg IP, retest on the 4th day, 6 treatments, read-out: % variation vs controls (FS) in step through latency) was found to be 43%. Besides, in experiment [3] (IP, read-out: ED30 (dose increasing the latency time (STL) by 30%)), the ED30 turned out to be 2.3 mg/kg. The “Activity in increasing the avoidance time (in words)” value in experiment [3] (IP, retest on the 4th day) is “considerable activity in increasing the avoidance time”.

The values are drawn from patent publication US5723494A, “Derivatives of glutamic and aspartic acids, a method of preparing them, and their use as drugs for enhancing memory and learning” (priority 1993, dated 1998).
